Measured values from US11773078B2, “Furin inhibitors” (Glaxosmithkline Intellectual Property Development Limited, priority 2018, dated 2023).
Counter-ions that a name gives are not always drawn.

Legend:
[1] = biological target: T1, furin (endogenous protease) in U20S cells (Homo sapiens, UniProt P09958); experiment: Furin cell-based assay (image-based, Golgi-targeted GFP with BMP10 furin/PCSK cleavage site); details: 24-hour incubation, read-out: furin golgi cell pXC50 (converted);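 note: Read-out is mean GFP fluorescence of Golgi puncta per cell by high-content imaging, retained when furin inhibited, over an eleven-point 0.00017–10 µM series, four-parameter fit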
T1 construct: the endogenous protease cleaves GFP; endogenous in cells; host or cells: U2OS cells transduced with a BacMam reporter

[2] = biological target: T2, Furin (108-574-Tev-Flag-His) enzyme (Homo sapiens, UniProt P09958); experiment: Furin enzyme assay; assay type: biochemical; details: for IC50: read-out: furin enzyme pIC50 (converted)
T2 construct: Furin (108-574-Tev-Flag-His) enzyme was expressed and purified from CHO cells; TEV cleavage site (C); FLAG (C); His (C); made in house; host or cells: CHO cells
Protocol: Reactions were performed in black 384-well polystyrene low volume plates (Greiner). Furin (108-574-Tev-Flag-His) enzyme was expressed and purified from CHO cells. Compounds of the invention were dissolved in DMSO (1.0 mM) and serially diluted 1 to 3 with DMSO through eleven dilutions to provide a final compound concentration range from 0.00017 to 10 μM. 0.05 μL of each concentration was transferred to the corresponding well of an assay plate, and then 5 μL of 40 pM furin enzyme in assay buffer (100 mM HEPES pH7.5, 1 mM CaCl2 and 0.005% Triton X-100) was added using a Multidrop Combi (Thermo) to the compound plates, and mixed by inversion. […] The plates were centrifuged at 500×g for 1 minute and incubated at room temperature for two hours. Enzyme inhibition is then quantified using an Envision instrument (PerkinElmer).
Data were analyzed using AbaseXE 7.3, utilizing a four-parameter curve fit equation. The following values were used to define limits and/or constraints for each of the four parameters: • Minimum—limit −10 to 10 • Maximum—90 to 110 • Slope—limit 0.5 to 2.0 • pXC50 confidence interval—10
Raw counts obtained from the respective plate reader (Perkin Elmer) were captured for data analysis. Curves were generated using the equation: Y=A+[(B−A)/(1+(10^C/x)^D)] • where: A=minimum response • B=maximum response • C=log 10*XC50 • D=slope factor • x=log 10 compound concentration [M]
The results were recorded as pXC50 values (−C in the above equation)

T1 sequence (P09958 108-794): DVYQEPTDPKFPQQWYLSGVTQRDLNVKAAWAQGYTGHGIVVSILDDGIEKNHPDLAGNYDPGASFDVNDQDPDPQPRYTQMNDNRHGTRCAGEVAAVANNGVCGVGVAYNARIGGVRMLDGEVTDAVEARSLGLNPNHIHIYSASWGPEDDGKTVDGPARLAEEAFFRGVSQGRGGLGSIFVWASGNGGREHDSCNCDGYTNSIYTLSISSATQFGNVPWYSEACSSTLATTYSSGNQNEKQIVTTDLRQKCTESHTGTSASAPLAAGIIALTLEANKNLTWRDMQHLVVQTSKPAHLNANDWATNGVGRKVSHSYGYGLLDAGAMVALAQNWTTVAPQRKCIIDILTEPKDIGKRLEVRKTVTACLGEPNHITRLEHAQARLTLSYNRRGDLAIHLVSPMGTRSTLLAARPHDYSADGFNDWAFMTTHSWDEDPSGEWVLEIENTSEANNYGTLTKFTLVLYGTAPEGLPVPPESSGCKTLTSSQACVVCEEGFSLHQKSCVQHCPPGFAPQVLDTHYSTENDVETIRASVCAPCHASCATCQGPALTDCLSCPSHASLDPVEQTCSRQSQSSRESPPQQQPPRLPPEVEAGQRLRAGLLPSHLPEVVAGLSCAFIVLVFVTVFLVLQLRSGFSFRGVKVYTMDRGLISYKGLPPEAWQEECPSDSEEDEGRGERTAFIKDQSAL
T2 sequence (P09958 108-574): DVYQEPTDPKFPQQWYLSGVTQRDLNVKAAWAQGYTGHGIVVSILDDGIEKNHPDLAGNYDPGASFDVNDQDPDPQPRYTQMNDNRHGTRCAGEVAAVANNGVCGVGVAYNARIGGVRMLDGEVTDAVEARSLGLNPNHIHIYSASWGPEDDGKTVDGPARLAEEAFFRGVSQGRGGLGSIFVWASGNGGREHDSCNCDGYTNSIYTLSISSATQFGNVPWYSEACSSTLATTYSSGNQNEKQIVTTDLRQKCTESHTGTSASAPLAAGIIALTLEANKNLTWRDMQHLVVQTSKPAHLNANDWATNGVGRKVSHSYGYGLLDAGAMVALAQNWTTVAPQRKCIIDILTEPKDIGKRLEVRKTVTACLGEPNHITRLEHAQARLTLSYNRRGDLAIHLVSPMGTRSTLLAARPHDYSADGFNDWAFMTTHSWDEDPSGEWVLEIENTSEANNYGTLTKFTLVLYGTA

| SMILES | EC50 [1] [nM] | furin enzyme pIC50 [2] | IC50 [2] [nM] |
| --- | --- | --- | --- |
| CC(=O)NCC1CCN(Cc2cc(Oc3ccc(N4CC[C@@H](N)[C@@H](F)C4)nc3)nc(-c3cc(Cl)cc(Cl)c3)c2)CC1 (relative stereo) [Example 182] | 1.58 | 9.3 | – |
| CC(=O)NCC1CCN(Cc2cc(Oc3ccc(N4C[C@H](CN)[C@@H](O)C4)nc3)nc(-c3cc(Cl)cc(Cl)c3)c2)CC1 (relative stereo) [Example 184, N-((1-((2-((6-(trans-3-(Aminomethyl)-4-hydroxypyrrolidin-1-yl)pyridin-3-yl)oxy)-6-(3,5-dichlorophenyl)pyridin-4-yl)methyl)piperidin-4-yl)methyl)acetamide] | 15.8 | – | 0.251 |
| CNC(=O)CN1CCN(Cc2cc(Oc3ccc(N4CCNCC4)nc3)nc(-c3cc(Cl)cc(Cl)c3)c2)CC1 [Example 1, 2-(4-((2-(3,5-Dichlorophenyl)-6-((6-(piperazin-1-yl)pyridin-3-yl)oxy)pyridin-4-yl)methyl)piperazin-1-yl)-N-methylacetamide, 5 hydrochloride] | 1.58 | 8.3 | – |
| CC(=O)NCC1(O)CCN(Cc2cc(Oc3ccc(N4CCNCC4)nc3)nc(-c3cc(Cl)cc(Cl)c3)c2)CC1 [Example 2, N-((1-((2-(3,5-Dichlorophenyl)-6-((6-(piperazin-1-yl)pyridine-3-yl)oxy)pyridin-4-yl)methyl)-4-hydroxypiperidin-4-yl)methyl)acetamide] | 39.8 | 8.8 | – |
| O=C(O)CCC1CCN(Cc2cc(Oc3ccc(N4CCNCC4)nc3)nc(-c3cc(Cl)cc(Cl)c3)c2)CC1 [Example 3, 3-(1-((2-(3,5-Dichlorophenyl)-6-((6-(piperazin-1-yl)pyridin-3-yl)oxy)pyridin-4-yl)methyl)piperidin-4-yl)propanoic acid, 4 hydrochloride] | 50.1 | 8.9 | – |
| O=C(O)CC1CCN(Cc2cc(Oc3ccc(N4CCNCC4)nc3)nc(-c3cc(Cl)cc(Cl)c3)c2)CC1 [Example 4, 2-(1-((2-(3,5-Dichlorophenyl)-6-((6-(piperazin-1-yl)pyridin-3-yl)oxy)pyridin-4-yl)methyl)piperidin-4-yl)acetic acid, 4 hydrochloride] | 31.6 | 8.7 | – |
| CNC(=O)NCC1(O)CCN(Cc2cc(Oc3ccc(N4CCNCC4)nc3)nc(-c3cc(Cl)cc(Cl)c3)c2)CC1 [Example 5, 1-((1-((2-(3,5-Dichlorophenyl)-6-((6-(piperazin-1-yl)pyridin-3-yl)oxy)pyridin-4-yl)methyl)-4-hydroxypiperidin-4-yl)methyl)-3-methylurea, 4 hydrochloride] | 63.1 | 9.1 | – |
| COC(=O)NCC1(O)CCN(Cc2cc(Oc3ccc(N4CCNCC4)nc3)nc(-c3cc(Cl)cc(Cl)c3)c2)CC1 [Example 6, Methyl ((1-((2-(3,5-dichlorophenyl)-6-((6-(piperazin-1-yl)pyridin-3-yl)oxy)pyridin-4-yl)methyl)-4-hydroxypiperidin-4-yl)methyl)carbamate, 4 hydrochloride] | 7.94 | 8.5 | – |
| O=S(=O)(O)CCC1CCN(Cc2cc(Oc3ccc(N4CCNCC4)nc3)nc(-c3cc(Cl)cc(Cl)c3)c2)CC1 [Example 7, 2-(1-((2-(3,5-Dichlorophenyl)-6-((6-(piperazin-1-yl)pyridin-3-yl)oxy)pyridin-4-yl)methyl)piperidin-4-yl)ethanesulfonic acid, 4 hydrochloride] | 79.4 | 9.2 | – |
| O=S(=O)(O)CC1CCN(Cc2cc(Oc3ccc(N4CCNCC4)nc3)nc(-c3cc(Cl)cc(Cl)c3)c2)CC1 [Example 8, (1-((2-(3,5-Dichlorophenyl)-6-((6-(piperazin-1-yl)pyridin-3-yl)oxy)pyridin-4-yl)methyl)piperidin-4-yl)methanesulfonic acid, 4 hydrochloride] | 200 | 8.9 | – |
| CC(=O)NCC1CCN(Cc2cc(Oc3ccc(N4CCNCC4)nc3)nc(-c3cc(Cl)cc(Cl)c3)c2)CC1 [Example 9, N-((1-((2-(3,5-Dichlorophenyl)-6-((6-(piperazin-1-yl)pyridin-3-yl)oxy)pyridin-4-yl)methyl)piperidin-4-yl)methyl)acetamide, 4 hydrochloride] | 7.94 | 9.2 | – |
| CC(=O)NCC1CCN(Cc2cc(Oc3ccc(N4CCN(CCC(N)=O)CC4)nc3)nc(-c3cc(Cl)cc(Cl)c3)c2)CC1 [Example 13, hydrochloride] | 7.94 | 9.1 | – |
| CC(=O)NCC1CCN(Cc2cc(Oc3ccc(N4CCN(CCc5nnn[nH]5)CC4)nc3)nc(-c3cc(Cl)cc(Cl)c3)c2)CC1 [Example 14, N-((1-((2-((6-(4-(2-(1H-Tetrazol-5-yl)ethyl)piperazin-1-yl)pyridin-3-yl)oxy)-6-(3,5-dichlorophenyl)pyridin-4-yl)methyl)piperidin-4-yl)methyl)acetamide, 4 hydrochloride] | 631 | 9.5 | – |
| CC(=O)NCC1CCN(Cc2cc(Oc3ccc(N4CCN(CC[S+](C)[O-])CC4)nc3)nc(-c3cc(Cl)cc(Cl)c3)c2)CC1 (stereo not drawn) [Example 15, N-((1-((2-(3,5-Dichlorophenyl)-6-((6-(4-(2-(methylsulfinyl)ethyl)piperazin-1-yl)pyridin-3-yl)oxy)pyridin-4-yl)methyl)piperidin-4-yl)methyl)acetamide, 4 hydrochloride] | 25.1 | 8.5 | – |
| CC(=O)NCC1CCN(Cc2cc(Oc3ccc(N4CCN(C(C)CCS(C)(=O)=O)CC4)nc3)nc(-c3cc(Cl)cc(Cl)c3)c2)CC1 (stereo not drawn) [Example 16] | 1.26 | 9 | – |
| CNC(=O)NCC1CCN(Cc2cc(Oc3cnc(N4CCN(CCC(C)[S+](C)[O-])CC4)nc3)nc(-c3cc(Cl)cc(Cl)c3)c2)CC1 (stereo not drawn) [Example 17, 1-((1-((2-(3,5-dichlorophenyl)-6-((2-(4-(3-(methylsulfinyl)butyl)piperazin-1-yl)pyrimidin-5-yl)oxy)pyridin-4-yl)methyl)piperidin-4-yl)methyl)-3-methylurea] | 2 | – | 0.0316 |
| CC(=O)NCC1CCN(Cc2cc(Oc3ncc(N)cn3)cc(-c3cc(Cl)cc(Cl)c3)c2)CC1 [Example 43, N-((1-((5-((5-aminopyrimidin-2-yl)oxy)-3′,5′-dichloro-[1,1′-biphenyl]-3-yl)methyl)piperidin-4-yl)methyl)acetamide] | – | 6 | – |
| COC(=O)NC(=O)CCN1CCN(c2ncc(Oc3cc(CN4CCC(CNC(C)=O)CC4)cc(-c4cc(Cl)cc(Cl)c4)n3)cn2)CC1 [Example 172, methyl (3-(4-(5-((4-((4-(acetamidomethyl)piperidin-1-yl)methyl)-6-(3,5-dichlorophenyl)pyridin-2-yl)oxy)pyrimidin-2-yl)piperazin-1-yl)propanoyl)carbamate] | – | – | 0.251 |
| COC(=O)NC(=O)CCN1CCN(c2ncc(Oc3cc(CN4CCC(CNC(C)=O)CC4)cc(-c4cc(Cl)cc(Cl)c4)n3)cn2)CC1 [Example 175, methyl (3-(4-(5-((4-((4-(acetamidomethyl)piperidin-1-yl)methyl)-6-(3,5-dichlorophenyl)pyridin-2-yl)oxy)pyrimidin-2-yl)piperazin-1-yl)propanoyl)carbamate] | – | 9.2 | – |
| CNC(=O)NCC1CCN(Cc2cc(Oc3ccc(N4CCN(CCCS(N)(=O)=O)CC4)nc3)nc(-c3cc(Cl)cc(Cl)c3)c2)CC1 [Example 260, 3-(4-(5-((6-(3,5-dichlorophenyl)-4-((4-((3-methylureido)methyl)piperidin-1-yl)methyl)pyridin-2-yl)oxy)pyridin-2-yl)piperazin-1-yl)propane-1-sulfonamide] | 6.31 | – | – |
| CN1CCN(c2ncc(Oc3cc(CN4CC[C@@H]5[C@H](CC4)[C@H]5C(=O)O)cc(-c4cc(Cl)cc(Cl)c4)n3)cn2)CC1 [Example 321, (1R,7S,8r)-4-((2-(3,5-dichlorophenyl)-6-((2-(4-methylpiperazin-1-yl)pyrimidin-5-yl)oxy)pyridin-4-yl)methyl)-4-azabicyclo[5.1.0]octane-8-carboxylic acid] | 15.8 | – | – |
| C[C@H](CC1CCN(Cc2cc(Oc3ccc(N4CCN(C)CC4)nn3)nc(-c3cc(Cl)cc(Cl)c3)c2)CC1)C(=O)O [Example 364, (R)-3-(1-((2-(3,5-dichlorophenyl)-6-((6-(4-methylpiperazin-1-yl)pyridazin-3-yl)oxy)pyridin-4-yl)methyl)piperidin-4-yl)-2-methylpropanoic acid] | 31.6 | – | – |
| CN1CCN(c2cnc(Oc3nc(-c4cc(Cl)cc(Cl)c4)cc(CN4CCC(CC(=O)O)CC4)c3F)cn2)CC1 [Example 390, 2-(1-((6-(3,5-Dichlorophenyl)-3-fluoro-2-((5-(4-methylpiperazin-1-yl)pyrazin-2-yl)oxy)pyridin-4-yl)methyl)piperidin-4-yl)acetic acid] | – | 8.3 | – |
